These compounds were tested against Sphingosine 1-phosphate receptor 1 (Homo sapiens, UniProt P21453) (assay: S1P1 receptor agonists, dose response, cell-based, agonist mode, 60K MLSMR set (AID 468)). Settings: not given.
Chain of Sphingosine 1-phosphate receptor 1 (P21453 whole entry): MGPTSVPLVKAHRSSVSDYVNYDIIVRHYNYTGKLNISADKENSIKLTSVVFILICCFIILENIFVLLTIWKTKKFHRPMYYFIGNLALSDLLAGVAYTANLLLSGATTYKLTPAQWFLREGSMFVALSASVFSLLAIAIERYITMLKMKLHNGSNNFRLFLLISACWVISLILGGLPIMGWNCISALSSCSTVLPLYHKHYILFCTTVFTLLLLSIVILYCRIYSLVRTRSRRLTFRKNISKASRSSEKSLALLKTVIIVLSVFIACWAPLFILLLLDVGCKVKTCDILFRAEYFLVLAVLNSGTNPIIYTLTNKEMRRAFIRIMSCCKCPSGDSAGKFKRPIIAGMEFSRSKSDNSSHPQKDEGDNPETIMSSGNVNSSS

EC50	Compound
11.4 µM	CCc1ccc2oc(-c3cc(N)cc(C)c3O)nc2c1 [(6E)-4-amino-6-(5-ethyl-3H-1,3-benzoxazol-2-ylidene)-2-methyl-1-cyclohexa-2,4-dienone]
9.37 µM	CC(C)c1ccc2oc(-c3cc(N)ccc3O)nc2c1 [(6E)-4-amino-6-(5-isopropyl-3H-1,3-benzoxazol-2-ylidene)cyclohexa-2,4-dien-1-one]
3.8 µM	C=C(C)COc1ccc(-c2nc(N)nc(C)c2Oc2ccccc2OC)c(O)c1 [(6E)-6-[2-amino-5-(2-methoxyphenoxy)-6-methyl-1H-pyrimidin-4-ylidene]-3-(2-methylallyloxy)cyclohexa-2,4-dien-1-one]
0.986 µM	COc1ccc(-c2n[nH]cc2-c2ccc3c(c2)OCCO3)c(O)c1 [(6E)-6-[4-(2,3-dihydro-1,4-benzodioxin-6-yl)-1,2-dihydropyrazol-3-ylidene]-3-methoxycyclohexa-2,4-dien-1-one]
3.17 µM	CCOC(=O)CN(C(=O)CSc1nnc(-c2cccc(OC)c2)o1)c1ccc(F)cc1 [((4-Fluoro-phenyl)-{2-[5-(3-methoxy-phenyl)-[1,3,4]oxadiazol-2-ylsulfanyl]-acetyl}-amino)-acetic acid ethyl ester]
15.6 µM	CC(=N)C(C#N)C(=O)CSc1nc2cc(Cl)ccc2s1 (centres undefined) [(E)-3-amino-2-[2-[(5-chloro-1,3-benzothiazol-2-yl)sulfanyl]acetyl]but-2-enenitrile]
8.95 µM	CC(=N)C(C#N)C(=O)CSc1nnc(SCc2ccc(Cl)cc2)s1 (centres undefined) [(E)-3-amino-2-[2-[[5-[(4-chlorobenzyl)thio]-1,3,4-thiadiazol-2-yl]thio]acetyl]but-2-enenitrile]
> 95 µM	Cc1noc(/C=C/N(C)C)c1S(=O)(=O)N1CCN(c2ccccc2)CC1 [(E)-N,N-dimethyl-2-[3-methyl-4-(4-phenylpiperazin-1-yl)sulfonyl-1,2-oxazol-5-yl]ethenamine]
> 3 µM	O=S(=O)(C/C(=C/CO)S(=O)(=O)c1ccccc1)c1ccccc1 [(Z)-3,4-bis(benzenesulfonyl)but-2-en-1-ol]
2.13 µM	CCN(C(=O)C1CCCCC1)c1nnc(-c2cccnc2)s1 [Cyclohexanecarboxylic acid ethyl-(5-pyridin-3-yl-[1,3,4]thiadiazol-2-yl)-amide]
6.68 µM	COCCN(C(=O)c1ccccc1)c1nnc(-c2cccnc2)s1 [MLS000032523]
> 95 µM	O=C(CCC(=O)N(Cc1ccco1)C(C(=O)NC1CCCC1)c1ccncc1)Nc1cccnc1 (centres undefined) [MLS000033292]
9.4 µM	CC(C)(C)NC(=O)CSc1ncnc2c1nnn2Cc1ccccc1Cl [MLS000034488]
33.9 µM	CCOC(=O)Nc1ccc2c(c1)N(C(=O)CCN(C)C)c1ccccc1S2 [MLS000038082]
9.9 µM	Cc1ccc2[nH]c3c(NCc4ccco4)ncnc3c2c1 [MLS000040855]
4.18 µM	CCCCOc1ncnc2c1[nH]c1ccccc12 [MLS000041483]
0.537 µM	COc1ccc(CCNc2ncnc3c2oc2ccccc23)cc1OC [MLS000041708]
4.96 µM	CCCC(=O)Nc1ccc2oc(-c3ccc(OC)c(Br)c3)nc2c1 [MLS000042482]
1.56 µM	CCOc1ccccc1OCCCCCc1c(C)n[nH]c1C [MLS000043342]
6.79 µM	Cc1cc(C(=O)Nc2sc(C)c(-c3ccc(F)cc3)c2C(N)=O)no1 [MLS000043467]
5.94 µM	Cn1nc(CC(=O)Nc2ccc3c(c2)OCCO3)c2ccccc2c1=O [MLS000047020]
3.6 µM	O=C(Nc1ccc(-c2noc(CCc3ccccc3)n2)cc1)c1cccnc1 [MLS000047253]
0.148 µM	COc1ccc(-n2nc3ccc(NS(C)(=O)=O)cc3n2)cc1Cl [MLS000049114]
7.68 µM	O=S(=O)(Nc1ccc2c(c1)OCCO2)c1ccc2oc3ccccc3c2c1 [MLS000051884]
8.6 µM	CCN=c1scc(-c2ccc3c(c2)NC(=O)CO3)n1N=C1CCCC1 [MLS000054638]
4.37 µM	CCOC(=O)c1c(C)[nH]c(C(=O)C(C)OC(=O)c2cccc(OCc3c(C)noc3C)c2)c1C (centres undefined) [MLS000054923]
> 95 µM	COc1cc(C(=O)N2CCN(S(=O)(=O)c3ccc(C)cc3)CC2)ccc1OCc1c(C)noc1C [MLS000056221]
0.202 µM	CC(=O)Nc1ccccc1OCC(=O)c1cc(C)n(Cc2cccs2)c1C [MLS000056239]

EC50	Compound
8.82 µM	CCCn1c(NC(=O)c2cccc(S(=O)(=O)N3CCCC3)c2)nc2ccccc21 [MLS000057540]
5.6 µM	c1ccc2c(c1)oc1c(NCc3ccc4c(c3)OCO4)ncnc12 [MLS000057790]
5.96 µM	CCCC(=O)Nc1ccc(-c2nc3cc(C)ccc3o2)cc1 [MLS000061826]
1.23 µM	O=C(Nc1ccc(N2CCOCC2)c(Cl)c1)c1cccc(F)c1 [MLS000066209]
3.05 µM	Cc1ccc2oc(-c3ccc(NC(=O)c4cccnc4)cc3)nc2c1 [MLS000068975]
1.49 µM	CCN(C(=O)c1ccc(C(C)(C)C)cc1)c1nnc(Cn2nnc3ccccc32)s1 [MLS000072751]
9.54 µM	O=C(Nc1nc(-c2ccc3c(c2)OCO3)cs1)c1ccncc1 [MLS000073104]
> 95 µM	Cc1ccc2c(c1)N(CC(=O)Nc1ccc3c(c1)OCCO3)C(=O)CO2 [MLS000074457]
3.38 µM	CCCN(C(=O)c1cccs1)c1nnc(-c2ccncc2)s1 [MLS000074637]
4.76 µM	Cc1ccnc(SCC(=O)Nc2sc3c(c2C#N)CCCC3)n1 [MLS000077260]
4.18 µM	c1ccc(CN2CCN(c3ncnc4c3[nH]c3ccccc34)CC2)cc1 [MLS000078384]
6.12 µM	Fc1ccc2[nH]c3c(N4CCSCC4)ncnc3c2c1 [MLS000078401]
7.23 µM	NC(=Nc1nc2c(c(=O)[nH]1)CCCC2)Nc1ccccc1 [MLS000078734]
6.93 µM	CCc1ccc(NC(=O)c2cc(-c3ccco3)on2)cc1 [MLS000087211]
4.99 µM	Cc1ccc(NC(=O)c2cc(-c3ccco3)on2)cc1C [MLS000087214]
4.14 µM	CCc1c(C)sc(NC(=O)c2cc(-c3ccco3)on2)c1C#N [MLS000087225]
5.63 µM	Cc1nn(Cc2ccc(Cl)c(Cl)c2)c(C)c1NC(=O)c1cc(-c2ccco2)on1 [MLS000087229]
5.79 µM	COc1ccc(NC(=O)c2cc(-c3cccs3)on2)cc1OC [MLS000087261]
3.3 µM	COc1ccc2c(c1)CCc1c(C(=O)Nc3ccc(OC)c(OC)c3)noc1-2 [MLS000087452]
10.2 µM	CCOc1ccc(C(C)=O)cc1-n1c(O)c2c(c1O)C1C=CC2O1 [MLS000087730]
2.22 µM	Cn1c(SCC(=O)Nc2ccc(N3CCOCC3)c(Cl)c2)nnc1-c1ccccc1 [MLS000089171]
6.07 µM	O=S(=O)(NCc1cn2ccsc2n1)c1ccc(Oc2ccccc2)cc1 [MLS000094195]
8.85 µM	CCCC(=O)N1CCN(c2ccc(NC(=O)c3cc4ccccc4o3)cc2Cl)CC1 [MLS000096729]
4.39 µM	CCCc1ccc(OCc2nc(-c3ccc(NC(=O)c4ccco4)cc3)no2)cc1 [MLS000097352]
> 3 µM	O=C(Nc1nc(-c2ccc(Cl)s2)cs1)c1ccncc1 [MLS000098514]
8.51 µM	O=C(Nc1ccc(S(=O)(=O)NCc2ccco2)cc1)c1ccc2ccccc2n1 [MLS000098663]
> 30 µM	CCC(=O)Nc1ccc2c(c1)C(=O)N(C1CCCCC1)C2=O [MLS000099936]

Compound	EC50
CC(=O)Nc1cc(OC(C)=O)c2nonc2c1OC(C)=O [Acetic acid 7-acetoxy-5-acetylamino-benzo[1,2,5]oxadiazol-4-yl ester]	7.53 µM

Same assay, conditions: inactive by the depositor's call

EC50	Compound
10.6 µM	CCc1ccc2c(COC(=O)c3n[nH]c4ccccc34)cc(=O)oc2c1 [(7-ethyl-2-oxochromen-4-yl)methyl 1H-indazole-3-carboxylate]
95 µM	Cc1noc(/C=C/N(C)C)c1S(=O)(=O)N1CCc2ccccc21 [(E)-2-[4-(2,3-dihydroindol-1-ylsulfonyl)-3-methyl-1,2-oxazol-5-yl]-N,N-dimethyl-ethenamine]
25.4 µM	CC1=C(/C=C/C(C)=C/C=C/C(C)=C/C(=O)O)C(C)(C)CCC1 [ALL-TRANS-RETINOIC ACID]
11.8 µM	CC1Cc2cc(-c3csc(NC(=O)Cc4cccs4)n3)ccc2N1S(C)(=O)=O (centres undefined) [MLS000027766]
16.8 µM	Cc1ccccc1OCC(=O)Nc1ccc(N2CCN(C(=O)C(C)C)CC2)c(Cl)c1 [MLS000034491]
30.4 µM	CC(=O)c1sc(NC(=O)C2(F)C(F)(F)C(F)(F)C(F)(F)C(F)(F)C2(F)F)nc1C [MLS000040071]
14.7 µM	CC(C)[C@H](NC(=O)OC(C)(C)C)c1nnc(SCC(=O)Nc2ccc(Br)cc2)o1 [MLS000040800]
14 µM	CC(C)OCCCNc1ncnc2c1[nH]c1ccccc12 [MLS000041327]
26.1 µM	COc1cccc(-c2nc(-c3ccc(NC(=O)c4cccnc4)cc3)no2)c1 [MLS000047254]
15.2 µM	CC(=O)Nc1ccc(S(=O)(=O)N2CCN(CCCOc3cc(C)ccc3C)CC2)cc1 [MLS000050317]
22.4 µM	N#C/C(=C/c1ccc(N2CCCCCC2)o1)c1ccc(F)cc1 [MLS000051438]
13 µM	CN(Cc1cccs1)c1ncnc2sccc12 [MLS000056228]
10.1 µM	Cc1csc(NC(=O)c2nc(-c3ccccc3)n(-c3ccccc3)n2)n1 [MLS000058347]
17 µM	COc1cccc(-c2csc(N3CCN(CC(=O)Nc4ccc5c(c4)OCO5)CC3)n2)c1 [MLS000070935]
13.9 µM	O=C(c1ccco1)N1CCN(c2ncnc3c2[nH]c2ccc(Br)cc23)CC1 [MLS000078404]
15.8 µM	COc1ccc(-c2cc(C(=O)NC3CCCC3)no2)cc1OC [MLS000087117]
20.8 µM	COc1ccc(OC)c(-c2cc(C(=O)Nc3c(C)nn(Cc4ccc(Cl)cc4)c3C)no2)c1 [MLS000087191]
13.8 µM	Cc1nn(Cc2ccc(Cl)cc2)c(C)c1NC(=O)c1cc(-c2ccco2)on1 [MLS000087233]
95 µM	COc1ccc2c(c1)CCc1c(C(=O)NC3CCCCC3)noc1-2 [MLS000087437]
17.6 µM	O=C(Nc1nc(-c2nc3ccccc3s2)cs1)c1ccc(S(=O)(=O)N2CCOCC2)cc1 [MLS000087900]
10.2 µM	CCCC(=O)Nc1ccc(-c2nc3cc(C)c(C)cc3o2)cc1 [MLS000089940]
95 µM	Cc1cccc(-n2ncc3c(N(C)C4CCCCC4)ncnc32)c1 [MLS000100814]

Compound	EC50
CCN(CC)C(=O)Oc1ccc2c(=O)c(-c3ccc(OC)cc3)coc2c1 [MLS000083046]	12.9 µM
